This is an account of results in US20190038723A1, “Inhibiting UVB-Irradiation Damage By Targeting Nitric Oxide Synthases (cNOS)” (priority 2016, published 2019).

Assay type in all cases: cell-based, human
The test system of series [1] is HaCaT cells. Put plainly: Neutral comet assay of UVB-induced DNA damage in HaCaT cells. To be noted: for reduction of UVB-induced DNA breakage in keratinocytes: L-NAME 1 mM, UVB 10 mJ/cm^2. The protocol: FIGS. 10A-10B: UVB-induced DNA damage in HaCaT cells. The image (FIG. 10A) was captured by Cytation 3 Imaging Analyzer (BioTek, Winooski, Vt.); and, the DNA density (FIG. 10B) was analyzed by ImageJ (Version 1.46r. NIH) with Comet Assay Plugin (Pathology & Lab Med UNC-CH). *: p-value<0.05 vs. DMSO alone; **: p-value<0.05 vs. NAME. ***: p-value<0.05 vs. UV+DMSO. The data represents an average of DNA damage analysis for more than five cells.
To assess the effect of cNOS inhibitor on UVB-induced DNA damage in keratinocutes, HaCaT cells were treated with DMSO (solvent) or L-NAME (1 mM) for 1 hour prior to UVB radiation (10 mJ/cm^2). At […] post-UVB, the cells were collected and DNA damage was determined using a neutral comet assay kit following manufacture's protocol (Trevigen, Gaithersburg, Md.).

In series [2] the test system is HaCaT cells. As to the kind of experiment: Soft-agar cell transformation assay after UVB. To be noted: UVB every other day for 14 days. The procedure: FIG. 11: UVB-induced HaCaT cells transformation. The cell transformation was determined using a Transformation assay kit (Cell Biolabs, Inc.). *: p-value<0.05 vs. control. **: p-value<0.05 vs. UVB alone. The data represents an average of 3 sets of independent experiments.
To determine the chemoprevetive function of cNOS inhibitor for UVB-induced skin cell transformation, cells were treated with sham or UVB every other day for 14 days in the presence or absence of L-NAME (1 mM in media) all time. The cells were detached from plate and same amount of cells were seeded in soft-agar in 96-well microtiter plate. At day 10, the cells alone with soft-agar were solubilized in the wells using Cytoselect buffer (Cell Biolabs, Inc., San Diego, Calif.) and the amount of transformed cells was determined by fluorescence intensity using a Spectra Max M2 fluorescent platereader (Molecular Devices).

The next series deals with IKKα mRNA. Put plainly: Quantitative real-time PCR of IKKα mRNA expression after UVB. To be noted: HaCaT pre-treated with actinomycin D 5 μg/mL, UVB 50 mJ/cm^2. The protocol:
FIG. 3: Quantitative real-time PCR analysis of mRNA expression of IKKα in HaCaT human keratinocyte. The cells were pre-treated with DMSO or […] (Act.D, 5 μg/mL) and treated with of UVB (50 mJ/cm^2). The mRNA expression was normalized to GAP OH expression and depicted as fold change vs. DMSO control.
For orientation: Quantitative PCR measures a nucleic acid by following its amplification.

Starred links: 1 amine or outer side, 2 acyl side, 3 side chain; linkers in the order of their positions; H or OH if unused. Positions of bridges follow the written chain, without caps; N, C: chain ends. Non-standard residues stand in square brackets, D forms with d. Residues, ends and D or L forms follow the SMILES beside them. Chains are numbered I, II in the order given. Actinocin(9to1) = Cc1c2oc3c(C)ccc(C(=O)[*:1])c3nc-2c(C(=O)[*:2])c(N)c1=O; NMeV = CN[C@H](C(=O)O)C(C)C; Sar = CNCC(=O)O

As to `COC(=O)[C@@H](N)CCCNC(=N)N[N+](=O)[O-]` [L-NAME], the “percentage of UVB-induced tail DNA content” value in the series on HaCaT cells [1] (L-NAME 1 mM for 1 hour prior to UVB 10 mJ/cm^2, cells collected at 30 mM post-UVB, UVB+DMSO 49.2%) is 32.4%. In the series on HaCaT cells [1] (L-NAME 1 mM without UVB, DMSO alone 20.7%), the “tail DNA content, L-NAME alone” value amounted to 25.6%. Also, the “reduction of UVB-induced DNA breakage in keratinocytes” value in the series with HaCaT cells [1] (Control = DMSO alone) is given as 58.9%; with HaCaT cells [1] (Control = L-NAME alone), 71.2%. Also, the “suppression of UVB-induced transformation of keratinocytes” value with HaCaT cells [2] (L-NAME 1 mM in media) is recorded as “almost totally suppresses”. Moreover, in the series with HaCaT cells [2] (L-NAME 1 mM in media all time, soft-agar day 10, UVB alone 3.2), the “reading of transformed cells (fluorescence intensity)” value is on record as 1.3.
Consider `Cc1c2oc3c(C)ccc(C(=O)N[C@@H]4C(=O)N[C@H](C(C)C)C(=O)N5CCC[C@H]5C(=O)N(C)CC(=O)N(C)[C@@H](C(C)C)C(=O)O[C@@H]4C)c3nc-2c(C(=O)N[C@@H]2C(=O)N[C@H](C(C)C)C(=O)N3CCC[C@H]3C(=O)N(C)CC(=O)N(C)[C@@H](C(C)C)C(=O)O[C@@H]2C)c(N)c1=O` [actinomycin D] (I: T[dV]P[Sar][NMeV] / II: T[dV]P[Sar][NMeV]; ester I:1-I:C, II:1-II:C; linker I:N-II:N via Actinocin(9to1)), for which, in the series on IKKα mRNA, the “effect on IKKα mRNA level post-UVB” value is “does not have a statistically significant effect”.
